“And” between values parts separate entries of the source, which are not always exact repeats. Equal values may be shown once.

In this data set the test system is rat peripheral blood erythrocyte populations. Conditions: male rat, oral, 10 mg/kg body weight/day for 6 days.
Setting [1] is: tail vein blood ~24 hours after final administration, single replicate, 10 mg/kg/day.

Description: Approximately 24 hours after the sixth and final administration, blood was collected from the tail vein after a brief warming period under a heat lamp. Blood was maintained in a sodium heparin solution (500 USP units heparin/ml PBS) at room temperature until samples were fixed with −80° C. methanol. The fixed blood samples were divided into several aliquots and were coded for single-blind analysis. […] Pellets were tapped loose and 40 μl of each cell suspension was transferred to tubes containing 100 μl labeling solution (1000 μl HBSS with 0.5% fetal bovine serum plus 5 μl anti-rat CD71-PE plus 20 μg RNase A). Cells were then incubated for 30 minutes at 4° C. and then 45 minutes at 37° C. Unbound antibody was washed by adding 3 ml HBSS plus 0.5% fetal bovine serum and centrifuging for 5 minutes at about 600×g. Supernatants were aspirated, and cell pellets were tapped loose. Cells were resuspended with 1 ml HBSS containing 10^−5 dilution of SYTOX Green nucleic acid dye. Sufficient time was allowed for the nucleic acid dye to load and equilibrate with the cells (about 15 minutes at 4° C.). Cells labeled with anti-CD71-PE and stained with SYTOX Green were analyzed with a FACSCalibur flow cytometer (488 nm excitation). The frequencies of RET^CD71+, MN-RET^CD71+ and MN-NCEs were determined. As commonly practiced by flow cytometry operators, events were gated on light scatter characteristics, and in this way subcellular debris or cellular aggregates were excluded from analysis. […] For these analyses, the stop mode was the acquisition of 20,000 RETs per replicate.

As to `O=P1(N(CCCl)CCCl)NCCCO1` (centres unmarked) [cyclophosphamide], under “tail vein blood ~24 hours after final administration, single replicate, 20,000 RETs per replicate”, the “% RET^CD71+ (CD71-positive reticulocytes)” value is 2.66% and 2.72% and 2.57%. In addition, under setting [1], the “% MN-NCE (micronucleated normochromatic erythrocytes)” value is 0.05% and 0.04% (2×); the “% MN-RET^CD71+ (micronucleated CD71-positive reticulocytes)” value is 0.73% and 0.64% and 0.63%. Further, where the note is “Avg. of 3 replicates”, the “% MN-NCE (micronucleated normochromatic erythrocytes), Avg.” value worked out at 0.04%; the “% MN-RET^CD71+ (micronucleated CD71-positive reticulocytes), Avg.” value is listed as 0.67%; the “% RET^CD71+ (CD71-positive reticulocytes), Avg.” value worked out at 2.65%. Where the note is “result in words”, the “DNA-breaking activity: MN-RET^CD71+ frequency versus water-treated rat” value is on record as “increased” and the “cytostatic effect: RET^CD71+ frequency versus water-treated rat” value is reported as “decreased”.

The values are drawn from patent US20030134305A1, “Method for the enumeration of mammalian micronucleated erythrocyte populations with a single-laser flow cytometer” (priority 2001, published 2003).
